Earlier results in patent US20210059976A1, “ORAL PHARMACEUTICAL FORMULATION COMPRISING CANNABINOIDS AND POLOXAMER” (GW Research Limited, priority 2018, published 2021).
Read-outs that look alike come from different tables or passages of the source.

How the values were obtained:
[1] = test system: acute experimental models of generalized seizure
[2] = 20 mg oral administration, man

SMILES	Oral bioavailability	efficacy in acute experimental models of generalized seizure ([1]; 100 mg/kg, but not 1 or 10 mg/kg)	efficacy in acute experimental models of generalized seizure ([1]; between 1.25 and 10 mg/kg)	somnolence [2]
C=C(C)[C@@H]1CCC(C)=C[C@H]1c1c(O)cc(CCCCC)cc1O [CBD, cannabidiol]	low and unpredictable	efficacious		
CCCCCc1cc(O)c2c(c1)OC(C)(C)[C@@H]1CCC(C)=C[C@@H]21 [THC, tetrahydrocannabinol]			efficacious	induces somnolence
